Earlier results in paper PMC5688156, “The natural product carolacton inhibits folate-dependent C1 metabolism by targeting FolD/MTHFD” (Nature Communications, 2017).

System: human cells
Parameters: method as in PMID 9765352, PMID 9533527, PMID 9067281
Conditions: poor activity; cited from earlier work

## Nc1nc2c(c(=O)[nH]1)N1C(=O)N(c3ccc(C(=O)N[C@@H](CCC(=O)O)C(=O)O)cc3)CC1CN2 (stereo partly shown) [LY345899]
  IC50: 128 µM
